Assay results reported in patent publication US11858956B2, “6-aza-nucleoside prodrugs as antiviral agents for treating virus infections” (Southern Research Institute, priority 2020, dated 2024).

Experiments:
Type in all cases: cell-based
[1] = Cytotoxicity (CC50) in HEK293 cells; details: human, WNV
Procedure: (§1) As used herein, “CC50” is intended to refer to the concentration of a substance (e.g., a compound or a drug) that is required for 50% reduction of cell viability. In one aspect, an CC50 can refer to the concentration of a substance that is required for 50% reduction (i.e., cytotoxicity) in vivo, as further defined elsewhere herein.
The antiviral activity against Alpharviruses evaluated in HEK293 cells (4 hours pre-incubation with compound before infected with virus) is shown in Table 2 below. VTR=Virus titer reduction in log at 10 μM concentration. NT: not tested, ND: not determined

[2] = Cytotoxicity (CC50) in NHDF cells; details: human, CHIKV
Procedure: as §1
VTR=Virus titer reduction in log at 10 μM concentration. NT: not tested, ND: not determined.

[3] = system: ZIKA; assay: Antiviral activity against ZIKA in HEK 293 cells; details: Zika virus; for EC90: HEK293, read-out: ZIKA (HEK 293 cells) EC90; for log reduction at 10 µM: HEK293, read-out: ZIKA (HEK 293 cells) VTR (virus titer reduction)
[4] = system: VEEV; assay: microbe, parasite or virus in culture; details: Venezuelan equine encephalitis virus, NHDF; for EC90: read-out: VEEV (NHDF cells) EC90; for log reduction at 10 µM: read-out: VEEV (NHDF cells) VTR (virus titer reduction)
[5] = system: WNV; assay: Antiviral activity against WNV in HEK293 cells; details: West Nile virus; for EC90: HEK293, read-out: WNV (HEK293 cells) EC90; for log reduction at 10 µM: HEK293, read-out: WNV (HEK293 cells) VTR (virus titer reduction)
[6] = system: H3N2 strain; assay: Antiviral activity against Influenza H3N2 strain in MDCK cells; details: Influenza A virus; for log reduction at 20 µM: at 20 μM concentration, 4-6 hours pre-incubation, read-out: H3N2 strain (MDCK cells) VTR (virus titer reduction); for EC90: 4-6 hours pre-incubation with compound
Procedure: (§2) The antiviral activity against Influenza viruses (H1N1 and H3N2 strains) evaluated in MDCK cells (4-6 hours pre-incubation with compound) shown in Table 5 below. VTR=Virus titer reduction in log at 20 μM concentration. NT: not tested, ND: not determined.

[7] = system: DENV; assay: Antiviral activity against DENV in HEK293 cells; details: Dengue virus; for EC90: HEK293, read-out: DENV (HEK293 cells) EC90; for log reduction at 10 µM: HEK293, read-out: DENV (HEK293 cells) VTR (virus titer reduction)
[8] = system: H1N1 strain; assay: Antiviral activity against Influenza H1N1 strain in MDCK cells; details: Influenza A virus; for log reduction at 20 µM: at 20 μM concentration, 4-6 hours pre-incubation, read-out: H1N1 strain (MDCK cells) VTR (virus titer reduction); for EC90: 4-6 hours pre-incubation with compound
Procedure: as §2

[9] = Cytotoxicity (CC50) in MDCK cells; details: dog, H1N1
Procedure: as §1, §2

[10] = system: CHIKV; assay: Antiviral activity against CHIKV in NHDF cells; details: Chikungunya virus; for EC90: read-out: CHIKV (NHDF cells) EC90; for log reduction at 10 µM: read-out: CHIKV (NHDF cells) VTR (virus titer reduction)

Row | Compound | CC50 [1] [µM] | CC50 [2] [µM] | EC90 [3] [µM] | log reduction at 10 µM [3] | EC90 [4] [µM] | log reduction at 10 µM [4] | EC90 [5] [µM] | log reduction at 10 µM [5] | log reduction at 20 µM [6] | EC90 [7] [µM] | log reduction at 10 µM [7] | log reduction at 20 µM [8] | CC50 [9] [µM] | EC90 [10] [µM] | log reduction at 10 µM [10] | EC90 [6] [µM] | EC90 [8] [µM]
1 | C[C@H](NP(=O)(OC[C@H]1O[C@@H](n2ncc(=O)[nH]c2=O)[C@H](O)[C@@H]1O)Oc1ccccc1)C(=O)OCc1ccc([N+](=O)[O-])o1 (mixture of isomers) [Compound 1, (5-nitrofuran-2-yl)methyl ((((2R,3S,4R,5R)-5-(3,5-dioxo-4,5-dihydro-1,2,4-triazin-2(3H)-yl)-3,4-dihydroxytetra-hydrofuran-2-yl)methoxy)(phenoxy)phosphoryl)-L-alaninate] | 40 | > 40 | 3.2 | 2.2 | > 10 | 0.85 | 0.6 | 3.8 | 0.6 | 1.9 | 2.4 | 1.6 | > 100 | 0.95 | 4.3 | – | –
2 | CC(C)[C@@H](N)C(=O)OC[C@H]1O[C@@H](n2ncc(=O)[nH]c2=O)C(O)[C@H]1O (stereo partly drawn) [Compound 9, ((2r,3s,4r,5r)-5-(3,5-dioxo-4,5-dihydro-1,2,4-triazin-2(3H)-yl)-3,4-dihydroxytetrahydrofuran-2-yl) methyl-D-valinate] | 29 | > 40 | 1.4 | 2 | 3.04 | 3.1 | 0.22 | 3.5 | 3.4 | 1.3 | 3.2 | 3.4 | 19.6 | 1 | 1.34 | 2.41 | 0.77
3 | CC(C)COC(=O)[C@H](C)N[P@](=O)(OC[C@H]1O[C@@H](n2ncc(=O)[nH]c2=O)[C@H](O)[C@@H]1O)Oc1cccc2ccccc12 [Compound 8, isobutyl ((((2R,3S,4R,5R)-5-(3,5-dioxo-4,5-dihydro-1,2,4-triazin-2(3H)-yl)-3,4-dihydroxytetrahydrofuran-2-yl)-methoxy)(naphthalen-1-yloxy)phosphoryl)-L-alaninate] | > 40 | > 40 | 6 | 1.6 | > 10 | 0.21 | 2.9 | 2.8 | 1.6 | 3.9 | 2.3 | 3.4 | > 100 | > 10 | 0 | – | –
4 | CCCC(CCC)C(=O)Nc1cnn([C@@H]2O[C@H](CO)[C@@H](O)[C@H]2O)c(=O)n1 [Compound 18, N-(2-((2r,3r,4s,5r)-3,4-dihydroxy-5-(hydroxymethyl)-tetrahydrofuran-2-yl)-3-oxo-2,3-dihydro-1,2,4-triazin-5-yl)-2-propylpentanamide] | 30.8 | > 40 | 0.1 | 2.7 | > 10 | 0.13 | 0.4 | 2.8 | 3.4 | 0.2 | 4 | 3.3 | 19.6 | 3.2 | 1.42 | 2.78 | 0.66
5 | CC(C)COC(=O)[C@H](C)NP(=O)(OC[C@H]1O[C@@H](n2ncc(=O)[nH]c2=O)C(O)[C@H]1O)Oc1ccccc1 (stereo in doubt) [Compound 4, 2-isobutyl ((((2R,3S,4R,5R)-5-(3,5-dioxo-4,5-dihydro-1,2,4-triazin-2(3H)-yl)-3,4-dihydroxytetrahydrofuran-2-yl)methoxy)(phenoxy)phosphoryl)-L-alaninate] | 40 | > 40 | 4.8 | 2 | 8.9 | 1.18 | 1.2 | 3.1 | 1.3 | 2 | 2.2 | 3.4 | > 100 | > 10 | 0 | – | –
6 | CCOC(=O)[C@H](C)NP(=O)(OC[C@H]1O[C@@H](n2ncc(=O)[nH]c2=O)[C@H](O)[C@@H]1O)Oc1ccccc1 (mixture of isomers) [Compound 6, ethyl ((((2R,3S,4R,5R)-5-(3,5-dioxo-4,5-dihydro-1,2,4-triazin-2(3H)-yl)-3,4-dihydroxytetrahydrofuran-2-yl)methoxy)-(phenoxy)phosphoryl)-L-alaninate] | > 40 | > 40 | 12 | – | > 10 | 0 | 10 | – | 0.2 | > 15 | – | 1.6 | > 100 | > 10 | 0 | – | –
7 | CC(C)OC(=O)[C@H](C)NP(=O)(OC[C@H]1O[C@@H](n2ncc(=O)[nH]c2=O)[C@H](O)[C@@H]1O)Oc1ccccc1 (mixture of isomers) [Compound 5, isopropyl ((((2R,3S,4R,5R)-5-(3,5-dioxo-4,5-dihydro-1,2,4-triazin-2(3H)-yl)-3,4-dihydroxytetrahydrofuran-2-yl)methoxy)(phenoxy)phosphoryl)-L-alaninate] | – | > 40 | > 30 | – | > 10 | 0 | > 30 | – | -0.1 | > 30 | – | 0.2 | > 100 | > 10 | 0.15 | – | –
8 | CCCCCCCCCCCCCCCCCC(=O)OC[C@H]1O[C@@H](n2ncc(=O)[nH]c2=O)[C@H](O)[C@@H]1O [Compound 15, ((2r,3s,4r,5r)-5-(3,5-dioxo-4,5-dihydro-1,2,4-triazin-2(3H)-yl)-3,4-dihydroxytetrahydrofuran-2-yl)methyl stearate] | 0.97 | 7.96 | 0.4 | 3 | > 10 | 0 | 0.33 | 4.5 | 3 | 0.16 | 3.6 | 3.3 | > 20 | 0.31 | 2.6 | 3.29 | 0.75
9 | CC[C@H](C)[C@H](N)C(=O)OC[C@H]1O[C@@H](n2ncc(=O)[nH]c2=O)[C@H](O)[C@@H]1O [Compound 10, ((2r,3s,4r,5r)-5-(3,5-dioxo-4,5-dihydro-1,2,4-triazin-2(3H)-yl)-3,4-dihydroxytetrahydrofuran-2-yl)methyl L-isoleucinate] | 29 | > 40 | 0.5 | 3.1 | 0.62 | 3.51 | 0.2 | 3.9 | 3.4 | 0.3 | 3.4 | 3.4 | 19.3 | > 10 | 0.39 | 3.33 | 3.68
